Structures can show the parent of a compound that is named as a salt.
target: calmodulin (Bos taurus, UniProt P62157); assay: Calmodulin inhibitory activity (calmodulin-activated cyclic nucleotide phosphodiesterase, [3H]cGMP); format: biochemical; details: 10^-5 M

SMILES	inhibition at 10 µM
O=S(=O)(NCCCCSc1cccc2nccn12)c1cccc2ccccc12 [Compound 168, 5-[4-(1-naphthalenesulfonylamino)butylthio]imidazo[1,2-a]pyridine]	56%
COC(=O)NCCCSc1cccc2nccn12 [Compound 145, 5-[3-(Methoxycarbonylamino)propylthio]imidazo[1,2-a]pyridine]	63%
O=S(=O)(NCCSc1cccc2nccn12)C(F)(F)F [Compound 26, 5-[2-(Trifluoromethylsulfonylamino)ethylthio]imidazo[1,2-a]pyridine]	100%
Cc1cn2c(SCCNS(=O)(=O)c3cccc4ccccc34)cccc2n1 [Compound 56, 2-Methyl-5-[2-(1-naphthylsulfonylamino)ethylthio]imidazo[1,2-a]pyridine]	62%
CCCCCCCCCCCCCCCCS(=O)(=O)NCCSc1cccc2nccn12 [Compound 9, 5-[2-(Hexadecylsulfonylamino)ethylthio]imidazo[1,2-a]pyridine]	100%
O=C(NCCSc1cccc2nccn12)c1cccs1 [Compound 89, 5-[2-[(2-Thenoylamino)]ethylthio]imidazo[1,2-a]pyridine]	54%
CC(C)OC(=O)NCCSc1cccc2ncc(CN3CCOCC3)n12 [Compound 144, 5-[2-(Isopropyloxycarbonylamino)ethylthio]-3-(morpholinomethyl)imidazo[1,2-a]pyridine]	60%
COc1ccc(NC(=S)NCCSc2cccc3nccn23)cc1 [Compound 109, 5-[2-[4-(Methoxy)phenylthiocarbamoylamino]ethylthio]imidazo[1,2-a]pyridine]	50%
CC(C)NC(=O)NCCSc1cccc2nccn12 [Compound 103, 5-[2-(Isopropylcarbamoylamino)ethylthio]imidazo[1,2-a]pyridine]	52%
O=S(=O)(NCCSc1cccc2nccn12)c1ccc(Cl)cc1 [Compound 34, 5-[2-[4-(Chloro)phenylsulfonylamino]ethylthio]imidazo[1,2-a]pyridine]	53%
O=S(=O)(NCCSc1cccc2nccn12)c1cc(Cl)c(Cl)cc1Cl [Compound 37, 5-[2-[2,4,5-(Trichloro)phenylsulfonylamino]ethylthio]imidazo[1,2-a]pyridine]	58%
O=S(=O)(NCCSc1cccc2nccn12)c1cccc2ccccc12 [Compound 42, 5-[2-[(1-Naphthyl)sulfonylamino]ethylthio]imidazo[1,2-a]pyridine]	100%
CNC(=O)OCCSc1cccc2nccn12 [Compound 118, 5-[2-(methylcarbamoyloxy)ethylthio]imidazo[1,2-a]pyridine]	74%
O=C(NCCSc1cccc2nccn12)OCC(Cl)(Cl)Cl [Compound 136, 5-[2-[2,2,2-(Trichloro)ethoxycarbonylamino]ethylthio]imidazo[1,2-a]pyridine]	52%
O=S(=O)(NCCSc1cccc2nccn12)c1ccc2ccccc2c1 [Compound 44, 5-[2-[(2-Naphthyl)sulfonylamino]ethylthio]imidazo[1,2-a]pyridine]	65%
O=S(=O)(NCCCOc1cccc2nccn12)c1cccc2ccccc12 [Compound 79, 5-[3-(1-(Naphthyl)sulfonylamino)propyloxy]imidazo[1,2-a]pyridine]	50%
CN(C)c1cccc2c(S(=O)(=O)NCCSc3cccc4nccn34)cccc12 [Compound 48, 5-[2-[5-(Dimethylamino)-(1-naphthylsulfonylamino)]ethylthio]imidazo[1,2-a]pyridine]	50%
CC(C)S(=O)(=O)NCCSc1cccc2nccn12 [Compound 5, 5-[2-(Isopropylsulfonylamino)ethylthio]imidazo[1,2-a]pyridine]	50%
O=S(=O)(N1CCC(Oc2cccc3nccn23)CC1)C(F)(F)F [Compound 77, 5-[1-(Trifuloromethylsulfonyl)-4-piperidyloxy]imidazo[1,2-a]pyridine]	80%
C=CCOC(=O)NCCSc1cccc2nccn12 [Compound 135, 5-[2-(Allyloxycarbonylamino)ethylthio]imidazo[1,2-a]pyridine]	60%
O=C(NCCSc1cccc2nccn12)c1ccccc1 [Compound 87, 5-[2-(Benzoylamino)ethylthio]imidazo[1,2-a]pyridine]	51%
O=S(=O)(NCCOc1cccc2nccn12)c1cccc2ccccc12 [Compound 78, 5-[2-(1-(Naphthyl)sulfonylamino)ethyloxy]imidazo[1,2-a]pyridine]	56%

SMILES	inhibition at 10 µM
O=S(=O)(NCC(Oc1cccc2nccn12)c1ccccc1)C(F)(F)F (centres unmarked) [Compound 75, 5-[[1-(Phenyl)-2-(trifluoromethylsulfonylamino)]ethyloxy]imidazo[1,2-a]pyridine]	55%
CC(=O)Nc1ccc(S(=O)(=O)NCCSc2cccc3nccn23)cc1 [Compound 32, 5-[2-[4-(Acetamido)phenylsulfonylamino]ethylthio]imidazo[1,2-a]pyridine]	62%
CC(=O)NCCSc1cccc2nccn12 [Compound 83, 5-[2-(acetylamino)ethylthio]imidazo[1,2-a]pyridine]	76%
O=S(=O)(/C=C/c1ccccc1)N(CCSc1cccc2nccn12)S(=O)(=O)/C=C/c1ccccc1 [Compound 50, 5-[2-[N,N-di-(E)-Styrylsulfonylamino]ethylthio]imidazo[1,2-a]pyridine]	65%
CCCNC(=O)NCCSc1cccc2nccn12 [Compound 102, 5-[2-(Propylcarbamoylamino)ethylthio]imidazo[1,2-a]pyridine]	52%
CS(=O)(=O)NCCSc1cccc2ncc(CN3CCOCC3)n12 [Compound 14, 5-[2-(methylsulfonylamino)ethylthio]3-morpholinomethylimidazo[1,2-a]pyridine]	85%
Cc1cn2c(SCCNC(=S)Nc3ccccc3)cccc2n1 [Compound 115, 2-Methyl-5-[2-(phenylthiocarbamoylamino)ethylthio]imidazo[1,2-a]pyridine]	53%
CC(C)OC(=O)NCCSc1cccc2nccn12 [Compound 132, 5-[2-(Isopropyloxycarbonylamino)ethylthio]imidazo[1,2-a]pyridine]	50%
CC(=O)Nc1nc(C)c(S(=O)(=O)NCCSc2cccc3nccn23)s1 [Compound 51, 5-[2-[2-(Acetylamino)-4-(methyl)-(5-thiazolyl)sulfonylamino]ethylthio]imidazo[1,2-a]pyridine]	83%
CS(=O)(=O)NCCCSc1cccc2nccn12 [Compound 27, 5-[3-(Methylsulfonylamino)propylthio]imidazo[1,2-a]pyridine]	51%
CS(=O)(=O)NCC(Oc1cccc2nccn12)c1ccccc1 (centres unmarked) [Compound 74, 5-[2-(Methylsulfonylamino)-1-(phenyl)ethyloxy]imidazo[1,2-a]pyridine]	50%
CCCOC(=O)NCCSc1cccc2nccn12 [Compound 130, 5-[2-(Propyloxycarbonylamino)ethylthio]imidazo[1,2-a]pyridine]	50%
O=C(NCCSc1cccc2nccn12)C(F)(F)F [Compound 84, 5-[2-(Trifluoroacetylamino)ethylthio]imidazo[1,2-a]pyridine]	69%
CC(=O)N(CCCSc1cccc2nccn12)CCNc1ccccc1 [Compound 158, 5-[3-[[2-(Anilino)ethyl]-N-(acetyl)amino]propylthio]imidazo[1,2-a]pyridine]	81%
O=C(NCCSc1cccc2nccn12)NC1CCCCC1 [Compound 105, 5-[2-(Cyclohexylcarbamoylamino)ethylthio]imidazo[1,2-a]pyridine]	67%
CN(C)Cc1cnc2cccc(SCCNS(C)(=O)=O)n12 [Compound 16, 3-Dimethylaminomethyl-5-[2-(methylsulfonylamino)ethylthio]imidazo[1,2-a]pyridine.dihydrochloride]	66%
CC(C)OC(=O)NCCCCSc1cccc2nccn12 [Compound 169, 5-[4-(isopropyloxycarbonylamino)butylthio]imidazo[1,2-a]pyridine]	58%
CCNC(=O)NCCSc1cccc2nccn12 [Compound 101, 5-[2-(Ethylcarbamoylamino)ethylthio]imidazo[1,2-a]pyridine]	56%
O=S(=O)(N1CCC(Sc2cccc3nccn23)CC1)C(F)(F)F [Compound 165, 5-[1-(trifluoromethanesulfonyl)4-piperidylthio]imidazo[1,2-a]pyridine]	65%
O=S(=O)(NCCSc1cccc2nccn12)c1ccccc1 [Compound 30, 5-[2-(Phenylsulfonylamino)ethylthio]imidazo[1,2-a]pyridine]	64%
CS(=O)(=O)NCCOc1cccc2nccn12 [Compound 62, 5-[2-(Methylsulfonylamino)ethyloxy]imidazo[1,2-a]pyridine]	79%
COC(=O)NCCSc1cccc2nccn12 [Compound 128, 5-[2-(methoxycarbonylamino)ethylthio]imidazo[1,2-a]pyridine]	50%

tested on: rat heart; assay: Effect on incidence of arrhythmia caused by ischemia and following reperfusion in rat heart; format: in vivo; details: 10 mg/kg oral, 1 hour before ligation; until 10 minutes after reperfusion
Method: Effect on incidence of arrhythmia caused by ischemia and following reperfusion in rat heart
Male Sprague Dawley rats (Japan Clea) of 9 to 10 weeks old were anesthetized with 50 mg/kg (i.p.) of sodium pentobarbital. The heart was exposed by a left thoractomy under artificial ventilation with room air and silk suture was placed under the main left coronary artery (LAD) to ligate for 5 minutes. Then, the ligature was released again for reperfusion. The incidence of ventricular tachycardia (VT), ventricular fibrillation (VF) and cardiac arrest (CA) caused until 10 minutes after reperfusion were noted. Medicines (compounds obtained in the above Examples) were orally administered (5 ml/kg) at 1 hour before tightening the ligature. The effect of medicines were estimated in comparison with the frequency of a group received a vehicle according to X^2 -test.

SMILES	CA (Frequency), cardiac arrest	VF (Frequency), ventricular fibrillation	VT (Frequency), ventricular tachycardia
O=S(=O)(NCCSc1cccc2nccn12)C(F)(F)F [Compound 26, 5-[2-(Trifluoromethylsulfonylamino)ethylthio]imidazo[1,2-a]pyridine]	1/3	1/3	2/3
CS(=O)(=O)NCCSc1cccc2ncc(CN3CCOCC3)n12 [Compound 14, 5-[2-(methylsulfonylamino)ethylthio]3-morpholinomethylimidazo[1,2-a]pyridine]	0/3	0/3	1/3

same assay, conditions: 30 mg/kg oral, 1 hour before ligation; until 10 minutes after reperfusion

SMILES	CA (Frequency), cardiac arrest	VF (Frequency), ventricular fibrillation	VT (Frequency), ventricular tachycardia
CNC(=O)OCCSc1cccc2nccn12 [Compound 118, 5-[2-(methylcarbamoyloxy)ethylthio]imidazo[1,2-a]pyridine]	0/3	1/3	1/3
CC(=O)Nc1ccc(S(=O)(=O)NCCSc2cccc3nccn23)cc1 [Compound 32, 5-[2-[4-(Acetamido)phenylsulfonylamino]ethylthio]imidazo[1,2-a]pyridine]	1/3	1/3	1/3

From patent US5244908A, “Imidazopyridine derivatives and their pharmaceutical use” (Takeda Chemical Industries, Ltd., priority 1990, dated 1993)
